The values that follow come from US6346626B1, “Chromanone and thiochromanone compounds” (Novartis AG, priority 1998, dated 2002).

The target of data set [1] is T1, steroid sulfatase in HaCaT keratinocytes (Homo sapiens, UniProt P08842).
T1 construct: HaCaT keratinocytes are cultivated in Dulbecco's modification of Eagle's medium (DMEM); endogenous in cells; host or cells: HaCaT keratinocytes
T1 sequence (P08842 22-583): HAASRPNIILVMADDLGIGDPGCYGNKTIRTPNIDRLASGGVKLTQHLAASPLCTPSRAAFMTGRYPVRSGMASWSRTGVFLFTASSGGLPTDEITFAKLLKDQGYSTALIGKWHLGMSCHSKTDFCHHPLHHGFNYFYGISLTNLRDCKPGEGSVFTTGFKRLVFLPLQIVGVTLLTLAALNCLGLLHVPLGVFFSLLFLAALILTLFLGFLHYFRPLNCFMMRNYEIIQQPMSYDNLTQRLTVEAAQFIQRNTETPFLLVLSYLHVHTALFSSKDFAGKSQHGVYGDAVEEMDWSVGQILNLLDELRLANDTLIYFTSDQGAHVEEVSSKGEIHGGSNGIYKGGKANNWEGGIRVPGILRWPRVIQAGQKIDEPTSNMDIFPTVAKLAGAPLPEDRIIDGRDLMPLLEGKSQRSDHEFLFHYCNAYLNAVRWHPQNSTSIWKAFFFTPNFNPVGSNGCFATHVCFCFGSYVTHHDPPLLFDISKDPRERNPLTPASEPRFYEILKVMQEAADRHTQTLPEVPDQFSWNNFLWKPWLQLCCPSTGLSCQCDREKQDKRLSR
Briefly: Steroid sulfatase inhibition in HaCaT cells incubated with DHEAS. The data set is classed as cell-based. As to conditions: intact HaCaT keratinocytes, 0.3 μM DHEAS, 96 hours.
Method: Steroid Sulfatase Inhibition in HaCaT Cells Incubated with DHEAS
HaCaT keratinocytes are cultivated in Dulbecco's modification of Eagle's medium (DMEM) supplemented with 10% v/v fetal calf serum (FCS). They are grown to confluency and then harvested by trypsinization. Approximately 2×10^6 cells are dispensed into 9.6 cm^2 dishes and incubated in medium containing FCS until confluency is reached. Then the medium is changed to serum-free DMEM (1.5 ml per well); 0.3 μM DHEAS is included as substrate with 1.5 μCi/well [^3H]-DHEAS (21 Ci/mmol) as tracer. Incubation is continued for 96 hours. […] In parallel, DHEAS is also incubated with medium without cells as a control for non-enzymatic hydrolysis. After incubation, the supernatant is removed and 1 ml is extracted with 4 ml of toluene. 3 ml of the organic layer are collected and the solvent evaporated in vacuo. The residue is taken up in acetonitrile. 10 μg DHEA is included as carrier. The extract is analysed by high performance liquid chromatography (HPLC) using a RP C-8 column and isocratic elution with 10 mM ammonium sulfate pH 6/acetonitrile (60/40), at a flow rate of 1 ml/min. The amount of DHEA cleaved during incubation is calculated from the area of the corresponding radioactive peak determined by continuous monitoring with a radiodetector equipped with a flow-cell.

The target of data set [2] is T2, steroid sulfatase (Homo sapiens, UniProt P08842).
T2 sequence (P08842 22-583): T1 sequence (P08842 22-583)
Briefly: Steroid sulfatase inhibition in vitro (purified enzyme, 4-methylumbelliferyl sulfate cleavage, fluorescence). To be noted: purified human placental steroid sulfatase, 0.5 mM 4-methylumbelliferyl sulfate, 37°, 1 hour; reference determined in parallel.
Method: Steroid Sulfatase Inhibition in vitro
a) Purification of Human Steroid Sulfatase
Human placenta is obtained fresh after delivery and stripped of membranes and connective tissues. For storage the material is frozen at −70°. After thawing, all further steps are carried out at 4°, while pH values are adjusted at 20°. 400 g of tissue are homogenized in 1.2 l of buffer A (50 mM Tris-HCl, pH 7.4; 0.25M sucrose). The homogenate is centrifuged at 10,000 g for 45 minutes. The supernatant is set aside and the pellet re-homogenized in 500 ml of buffer A. After centrifugation the two supernatants are combined and subjected to ultracentrifugation (100,000 g, 1 hour). The pellet is resuspended in buffer A and the centrifugation repeated. The pellet is suspended in 50 ml of 50 mM Tris-HCl, pH 7.4 and stored at −20° until further work-up.
After thawing, microsomes are collected by ultracentrifugation as described above and suspended in 50 ml of buffer B (10 mM Tris-HCl, pH 7.0; 1 mM EDTA; 2 mM 2-mercaptoethanol; 1% Triton X-100 v/v; 0.1% aprotinin v/v). After 1 hour on ice with gentle agitation the suspension is centrifuged (100,000 g, 1 hour). […]
Purified human steroid sulfatase also readily cleaves aryl sulfates such as 4-methylumbelliferyl sulfate. […]
Plates are incubated at 37° for 1 hour. […] Fluorescence intensity is measured (Titertek Fluoroskan II) with λex=355 nm and λem=460 nm. […]

The target in data set [3] is T2, steroid sulfatase. Briefly: Steroid sulfatase inhibition in cell extracts (HaCaT keratinocytes or 1BR3GN fibroblasts, [3H]-DHEAS cleavage). The format is biochemical. Set-up: the supernatant which contains the solubilized enzyme is removed and stored at 4°; endogenous in cells; host or cells: HaCaT keratinocytes or 1BR3GN fibroblasts (microsomal extract). To be noted: solubilized enzyme from HaCaT or 1BR3GN cells, 50 μM DHEAS, 30 minutes at 37°; depending on the enzyme concentration used.
Method: Steroid Sulfatase Inhibition in Cell Extracts
Human keratinocytes (HaCaT) or human skin-derived fibroblasts (1BR3GN) are grown to confluency using standard cell culture techniques. Cells are harvested by trypsinization, washed once with phosphate-buffered saline (PBS) and suspended in 20 mM Tris-HCl, pH 8.0. The suspension is sonicated and then centrifuged at 12000 g for 30 minutes. The supernatant is subjected to ultracentrifugation at 100000 g for 60 minutes. The resulting microsomal pellet is resuspended in buffer containing 0.1% Triton X-100 v/v and left standing for 30 minutes. After additional centrifugation at 100000 g for 30 minutes the supernatant which contains the solubilized enzyme is removed and stored at 4°.
For assay of the enzymatic activity 10 μl of enzyme solution are added to 100 μl of 50 μM dehydroepiandrosterone sulfate (DHEAS) containing approximately 60000 dpm [^3H]-DHEAS (21 Ci/mmol) in 0.1 M Tris-HCl, pH 7.5; 0.1% v/v Triton X-100. Test compound is included at various concentrations added from stock solutions in DMSO. After incubation for 30 minutes at 37°, 250 μl of 1N NaOH are added. The mixture is extracted with 1 ml of toluene. 800 μl of the organic layer are subjected to liquid scintillation counting to determine the fraction of substrate that has been cleaved to dehydroepiandrosterone (DHEA).

For `C[C@]12CC[C@@H]3c4ccc(OS(N)(=O)=O)cc4CC[C@H]3[C@@H]1CCC2=O` [Estrone-3-O-sulfamate], the IC50 was approximately 0.1 nM in data set [1], approximately 60 nM on steroid sulfatase [2] and 1 to 5 nM against steroid sulfatase [3].
In turn, `CN(C)S(=O)(=O)Oc1ccc2oc(C(C)(C)C)cc(=O)c2c1` [Example 9, N,N-Dimethylsulfamic acid 2-t-butyl-4H-chromen-4-on-6-yl ester] registered a melting point of 83 to 85 °C.

In general, IC50 refers to the concentration needed to halve the response being measured. A low value points to inhibition by little substance. As usually defined, the melting point is the temperature of the solid-liquid transition.
